Measurements from US20040137426A1, “Gp41 peptides and methods based thereon for inhibiting HIV fusion to target cells” (priority 2002, published 2004).
Values after ≈ are worked out from the molar mass of the structure shown.

Tests used:
89.6 = test: Primary isolate infectivity in peripheral blood lymphocytes, p24 ELISA: 89.6; type: cell-based, HIV-1; details: primary isolate 89.6
Method: (§1) Infectivity studies were performed using the inhibition of HIV-1 infection of the gp41 derived peptides using receptor bearing cells for both HIV-1 T cell line adapted virus (HIV-1 IIIB) in MT2 cells and primary isolate virus (SF162, JRCSF and 89.6) in peripheral blood lymphocytes. Both involved the culture of the virus with the peptide or its scrambled form for 1 hr at 37° C., 5% CO2 and then subsequent addition of target cells for 7 days. Inhibition was assessed using an enzyme-linked immunosorbent assay (ELISA) of viral core protein p24 antigen.

HIV-1 IIIB = type: cell-based; details: lab-adapted HIV-1 IIIB
Method: Both involved the culture of the virus with the peptide or its scrambled form for 1 hr at 37° C., 5% CO2 and then subsequent addition of target cells for 7 days. Inhibition was assessed using an enzyme-linked immunosorbent assay (ELISA) of viral core protein p24 antigen.

BR94 = test: Primary isolate infectivity in PBMCs: patient isolate BR94 (clade B); type: cell-based, HIV-1
JRCSF = test: Primary isolate infectivity in peripheral blood lymphocytes, p24 ELISA: JRCSF; type: cell-based, HIV-1
Method: as §1

SF162 = test: Primary isolate infectivity in peripheral blood lymphocytes, p24 ELISA: SF162; type: cell-based, HIV-1
Method: as §1

HIV-1 = details: qualitative comparison
Method: Peptides were tested in vitro for inhibition of early steps in cell-free HIV-1 infection and direct cell-to-cell spread of virus using T-cell line-adapted and primary isolates and recombinant HIV-1 viruses pseudotyped for env using CCR5, CXCR4 or both coreceptors.
Selected de novo designed peptides according to the invention (S291, N36E, W37Q and W371) and the new analogues of T20, T21 and DP219 were evaluated for inhibition of both cell-free HIV-1 infection and of direct cell-to-cell spread using a range of T-cell line-adapted and primary isolates and recombinant HIV-1 pseudotyped for env derived from patient isolates of different clades.

SMILES: CC[C@H](C)[C@H](NC(=O)[C@H](CC(C)C)NC(=O)[C@H](CO)NC(=O)[C@H](Cc1ccc(O)cc1)NC(=O)[C@@H](NC(=O)[C@H](CC(C)C)NC(=O)[C@H](CO)NC(=O)[C@@H](NC(=O)[C@H](Cc1ccc(O)cc1)NC(=O)[C@H](CC(N)=O)NC(=O)[C@H](CC(=O)O)NC(=O)[C@@H](NC(=O)[C@H](CCC(=O)O)NC(=O)[C@H](CCCNC(=N)N)NC(=O)[C@H](CCC(=O)O)NC(=O)[C@H](Cc1c[nH]c2ccccc12)NC(=O)[C@H](CCC(=O)O)NC(=O)[C@H](CCSC)NC(=O)[C@H](Cc1c[nH]c2ccccc12)NC(=O)[C@@H](NC(=O)[C@H](CCSC)NC(=O)[C@H](CC(N)=O)NC(=O)[C@H](CC(N)=O)NC(=O)[C@H](Cc1c[nH]c2ccccc12)NC(=O)[C@@H](NC(=O)[C@H](CCC(N)=O)NC(=O)[C@H](CCC(=O)O)NC(=O)[C@H](CC(C)C)NC(=O)[C@@H](N)CO)[C@@H](C)CC)[C@@H](C)O)[C@@H](C)CC)[C@@H](C)O)[C@@H](C)CC)C(=O)O [Peptide S29I]
- Primary isolate (ID50) 89.6 (89.6): 50 µg/mL
- ID50% HIV-1IIIB infectivity (HIV-1 IIIB): 9.37 µg/mL (≈ 2.55 µM)
- ID90 HIV-1IIIB infectivity (HIV-1 IIIB): 25 µg/mL (≈ 6.8 µM)
- MIC HIV-1IIIB infectivity (HIV-1 IIIB): 6.3 µg/mL (≈ 1.71 µM)
- Primary isolate (ID50) BR94 (BR94): 0 µg/mL
- Primary isolate (ID50) JRCSF (JRCSF): >50 µg/mL
- Primary isolate (ID50) SF162 (SF162): 0.06 µg/mL
- activity compared with the new analogues of T-20, T-21 and DP219 (HIV-1): broadly similar levels of activity
